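GI50: concentration for 50% inhibition of growth. Definition used: TGI = concentration required for complete inhibition of growth.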
What was measured:
Test in all cases: NCI tumour cell line growth inhibition, 384-well format
786-0 renal = system: 786-0 renal
A498 renal = system: A498 renal
A549 NSCLC = system: A549 NSCLC
ACHN renal = system: ACHN renal
BT-549 breast = system: BT-549 breast
CAKI-1 renal = system: CAKI-1 renal
COLO 205 colon = system: COLO 205 colon
DU-145 prostate = system: DU-145 prostate
EKVX NSCLC = system: EKVX NSCLC
HCC-2998 colon = system: HCC-2998 colon
HCT-116 colon = system: HCT-116 colon
HCT-15 colon = system: HCT-15 colon
HL-60(TB) leukemia = system: HL-60(TB) leukemia
HOP-62 NSCLC = system: HOP-62 NSCLC
HOP-92 NSCLC = system: HOP-92 NSCLC
HS 578T breast = system: HS 578T breast
HT29 colon = system: HT29 colon
IGROV1 ovarian = system: IGROV1 ovarian
KM12 colon = system: KM12 colon
LOX IMVI melanoma = system: LOX IMVI melanoma
M14 melanoma = system: M14 melanoma
MALME-3M melanoma = system: MALME-3M melanoma
MCF7 breast = system: MCF7 breast
MDA-MB-231 breast = system: MDA-MB-231 breast
MDA-MB-435 melanoma = system: MDA-MB-435 melanoma
MDA-MB-468 breast = system: MDA-MB-468 breast
MOLT-4 leukemia = system: MOLT-4 leukemia
NCI-H226 lung = system: NCI-H226 lung
NCI-H23 lung = system: NCI-H23 lung
NCI-H322M lung = system: NCI-H322M lung
NCI-H460 NSCLC = system: NCI-H460 NSCLC
NCI-H522 lung = system: NCI-H522 lung
NCI/ADR-RES ovarian = system: NCI/ADR-RES ovarian
OVCAR-3 ovarian = system: OVCAR-3 ovarian
OVCAR-4 ovarian = system: OVCAR-4 ovarian
OVCAR-5 ovarian = system: OVCAR-5 ovarian
OVCAR-8 ovarian = system: OVCAR-8 ovarian
PC-3 prostate = system: PC-3 prostate
RPMI-8226 leukemia = system: RPMI-8226 leukemia
RXF 393 renal = system: RXF 393 renal
SF-268 CNS = system: SF-268 CNS
SF-295 CNS = system: SF-295 CNS
SF-539 CNS = system: SF-539 CNS
SK-MEL-28 melanoma = system: SK-MEL-28 melanoma
SK-MEL-5 melanoma = system: SK-MEL-5 melanoma
SK-OV-3 ovarian = system: SK-OV-3 ovarian
SN12C renal = system: SN12C renal
SNB-19 CNS = system: SNB-19 CNS
SNB-75 CNS = system: SNB-75 CNS
SR leukemia = system: SR leukemia
SW-620 colon = system: SW-620 colon
T-47D breast = system: T-47D breast
TK-10 renal = system: TK-10 renal
U251 glioblastoma = system: U251 glioblastoma
UACC-257 melanoma = system: UACC-257 melanoma
UACC-62 melanoma = system: UACC-62 melanoma
UO-31 renal = system: UO-31 renal

## Cc1ccc(-c2cc(C(F)(F)F)nn2-c2ccc(S(N)(=O)=O)cc2)cc1
786-0 renal
  GI50: 14.1 µM
  TGI: 27.4 µM
A498 renal
  GI50: 15.6 µM
  TGI: 28.9 µM
A549 NSCLC
  GI50: 14.4 µM
  TGI: 27.5 µM
ACHN renal
  GI50: 15.1 µM
  TGI: 28.3 µM
BT-549 breast
  GI50: 15.9 µM
  TGI: 29.3 µM
CAKI-1 renal
  GI50: 16.8 µM
  TGI: 30.5 µM
COLO 205 colon
  GI50: 16.2 µM
  TGI: 29.7 µM
DU-145 prostate
  GI50: 15 µM
  TGI: 28.2 µM
EKVX NSCLC
  GI50: 14.2 µM
  TGI: 27.2 µM
HCC-2998 colon
  GI50: 14.9 µM
  TGI: 28.1 µM
HCT-116 colon
  GI50: 15.2 µM
  TGI: 28.5 µM
HCT-15 colon
  GI50: 14.7 µM
  TGI: 27.9 µM
HL-60(TB) leukemia
  GI50: 20.5 µM
  TGI: 34.8 µM
HOP-62 NSCLC
  GI50: 15.3 µM
  TGI: 28.6 µM
HOP-92 NSCLC
  GI50: 16 µM
  TGI: 29.4 µM
HS 578T breast
  GI50: 14.5 µM
  TGI: 27.7 µM
HT29 colon
  GI50: 16.1 µM
  TGI: 29.6 µM
IGROV1 ovarian
  GI50: 16.3 µM
  TGI: 29.8 µM
KM12 colon
  GI50: 15.8 µM
  TGI: 29.2 µM
LOX IMVI melanoma
  GI50: 17.6 µM
  TGI: 31.4 µM
M14 melanoma
  GI50: 19 µM
  TGI: 33.1 µM
MALME-3M melanoma
  GI50: 16.2 µM
  TGI: 29.8 µM
MCF7 breast
  GI50: 14.2 µM
  TGI: 27.2 µM
MDA-MB-231 breast
  GI50: 15.7 µM
  TGI: 29.2 µM
MDA-MB-435 melanoma
  GI50: 19.3 µM
  TGI: 33.4 µM
MDA-MB-468 breast
  GI50: 13.6 µM
  TGI: 26.5 µM
MOLT-4 leukemia
  GI50: 9.05 µM
  TGI: 21.3 µM
NCI-H226 lung
  GI50: 13 µM
  TGI: 25.6 µM
NCI-H23 lung
  GI50: 15.6 µM
  TGI: 29 µM
NCI-H322M lung
  GI50: 15.9 µM
  TGI: 29.4 µM
NCI-H460 NSCLC
  GI50: 15.3 µM
  TGI: 28.7 µM
NCI-H522 lung
  GI50: 13.6 µM
  TGI: 26.5 µM
NCI/ADR-RES ovarian
  GI50: 15.7 µM
  TGI: 29.1 µM
OVCAR-3 ovarian
  GI50: 14.3 µM
  TGI: 27.4 µM
OVCAR-4 ovarian
  GI50: 11.8 µM
  TGI: 24.1 µM
OVCAR-5 ovarian
  GI50: 16.2 µM
  TGI: 29.7 µM
OVCAR-8 ovarian
  GI50: 15.6 µM
  TGI: 28.9 µM
PC-3 prostate
  GI50: 14.6 µM
  TGI: 27.8 µM
RPMI-8226 leukemia
  GI50: 12.1 µM
  TGI: 24.5 µM
RXF 393 renal
  GI50: 14.4 µM
  TGI: 27.4 µM
SF-268 CNS
  GI50: 16.4 µM
  TGI: 30 µM
SF-295 CNS
  GI50: 16.5 µM
  TGI: 30.1 µM
SF-539 CNS
  GI50: 16.7 µM
  TGI: 30.4 µM
SK-MEL-28 melanoma
  GI50: 17.6 µM
  TGI: 31.4 µM
SK-MEL-5 melanoma
  GI50: 13.8 µM
  TGI: 26.7 µM
SK-OV-3 ovarian
  GI50: 17.1 µM
  TGI: 30.9 µM
SN12C renal
  GI50: 15.2 µM
  TGI: 28.6 µM
SNB-19 CNS
  GI50: 16.6 µM
  TGI: 30.4 µM
SNB-75 CNS
  GI50: 10.8 µM
  TGI: 23 µM
SR leukemia
  GI50: 29 µM
  TGI: 43.8 µM
SW-620 colon
  GI50: 17.1 µM
  TGI: 30.9 µM
T-47D breast
  GI50: 11.4 µM
  TGI: 23.7 µM
TK-10 renal
  GI50: 16.7 µM
  TGI: 30.4 µM
U251 glioblastoma
  GI50: 16 µM
  TGI: 29.5 µM
UACC-257 melanoma
  GI50: 16.6 µM
  TGI: 30.3 µM
UACC-62 melanoma
  GI50: 18.4 µM
  TGI: 32.4 µM
UO-31 renal
  GI50: 14.7 µM
  TGI: 27.9 µM

## COC1CCN(C(=O)c2cc(Cc3n[nH]c(=O)c4ccccc34)ccc2F)CC1
A498 renal
  GI50: > 100 µM
  TGI: > 100 µM
A549 NSCLC
  GI50: > 100 µM
  TGI: > 100 µM
ACHN renal
  GI50: > 100 µM
  TGI: > 100 µM
BT-549 breast
  GI50: 84.6 µM
  TGI: > 100 µM
CAKI-1 renal
  GI50: > 100 µM
  TGI: > 100 µM
COLO 205 colon
  GI50: > 100 µM
  TGI: > 100 µM
DU-145 prostate
  GI50: 68.2 µM
  TGI: > 100 µM
EKVX NSCLC
  GI50: > 100 µM
  TGI: > 100 µM
HCC-2998 colon
  GI50: 63.7 µM
  TGI: > 100 µM
HCT-116 colon
  GI50: 28.7 µM
  TGI: > 100 µM
HCT-15 colon
  GI50: > 100 µM
  TGI: > 100 µM
HL-60(TB) leukemia
  GI50: 10.4 µM
  TGI: 29.7 µM
HOP-62 NSCLC
  GI50: 10.4 µM
  TGI: 49.8 µM
HOP-92 NSCLC
  GI50: > 100 µM
  TGI: > 100 µM
HS 578T breast
  GI50: > 100 µM
  TGI: > 100 µM
HT29 colon
  GI50: > 100 µM
  TGI: > 100 µM
IGROV1 ovarian
  GI50: > 100 µM
  TGI: > 100 µM
KM12 colon
  GI50: > 100 µM
  TGI: > 100 µM
LOX IMVI melanoma
  GI50: 33.5 µM
  TGI: > 100 µM
M14 melanoma
  GI50: 74.7 µM
  TGI: > 100 µM
MALME-3M melanoma
  GI50: > 100 µM
  TGI: > 100 µM
MCF7 breast
  GI50: 68.1 µM
  TGI: > 100 µM
MDA-MB-231 breast
  GI50: 81 µM
  TGI: > 100 µM
MDA-MB-435 melanoma
  GI50: > 100 µM
  TGI: > 100 µM
MDA-MB-468 breast
  GI50: 9.62 µM
  TGI: 33.3 µM
MOLT-4 leukemia
  GI50: 4.06 µM
  TGI: 14.2 µM
NCI-H226 lung
  GI50: > 100 µM
  TGI: > 100 µM
NCI-H23 lung
  GI50: 59.7 µM
  TGI: > 100 µM
NCI-H322M lung
  GI50: > 100 µM
  TGI: > 100 µM
NCI-H460 NSCLC
  GI50: 5.93 µM
  TGI: 56.1 µM
NCI-H522 lung
  GI50: > 100 µM
  TGI: > 100 µM
NCI/ADR-RES ovarian
  GI50: 34.9 µM
  TGI: > 100 µM
OVCAR-3 ovarian
  GI50: 7.79 µM
  TGI: > 100 µM
OVCAR-4 ovarian
  GI50: > 100 µM
  TGI: > 100 µM
OVCAR-5 ovarian
  GI50: > 100 µM
  TGI: > 100 µM
OVCAR-8 ovarian
  GI50: 22.6 µM
  TGI: > 100 µM
PC-3 prostate
  GI50: > 100 µM
  TGI: > 100 µM
RPMI-8226 leukemia
  GI50: 46.6 µM
  TGI: > 100 µM
RXF 393 renal
  GI50: > 100 µM
  TGI: > 100 µM
SF-268 CNS
  GI50: 44.5 µM
  TGI: > 100 µM
SF-295 CNS
  GI50: 11.4 µM
  TGI: > 100 µM
SF-539 CNS
  GI50: 27.3 µM
  TGI: > 100 µM
SK-MEL-28 melanoma
  GI50: > 100 µM
  TGI: > 100 µM
SK-MEL-5 melanoma
  GI50: 74.2 µM
  TGI: > 100 µM
SK-OV-3 ovarian
  GI50: 32.3 µM
  TGI: > 100 µM
SN12C renal
  GI50: 46.1 µM
  TGI: > 100 µM
SNB-19 CNS
  GI50: 46.9 µM
  TGI: > 100 µM
SNB-75 CNS
  GI50: 94.7 µM
  TGI: > 100 µM
SR leukemia
  GI50: 0.364 µM
  TGI: 2.45 µM
T-47D breast
  GI50: > 100 µM
  TGI: > 100 µM
TK-10 renal
  GI50: > 100 µM
  TGI: > 100 µM
U251 glioblastoma
  GI50: 25.8 µM
  TGI: > 100 µM
UACC-257 melanoma
  GI50: > 100 µM
  TGI: > 100 µM
UACC-62 melanoma
  GI50: > 100 µM
  TGI: > 100 µM

Reference: PubChem BioAssay (NCI)
